# From patent publication US6133467A, “2,6-di-t-butyl-4-[(dimethyl-4-methoxyphenylsilyl)-methyl-oxy]phenol and 2,6-di-t-butyl-4-[(dimethyl-2-methoxy-phenylsilyl)methyloxy]phenol” (Hoechst Marion Roussel, Inc., priority 1998, dated 2000)
# Like-named read-outs stand apart in the source and are kept apart here.
# Columns and labels:
# [1] = test system: cholesterol-fed female New Zealand White rabbits (aortic lesions); assay: Antiatherosclerotic effect: aorta staining (Sudan IV) and lesion quantitation in cholesterol-fed female New Zealand White rabbits; assay type: in vivo, rabbit (New Zealand White; conditions: for Aortic Lesion % of Area, Abdom. (abdominal), as a percent of control: abdominal aorta; for Aortic Lesion % of Area, Abdom. (abdominal), as a percent of control / Aortic Lesion % of Area, Arch, as a percent of control / Aortic Lesion % of Area, Thor. (thoracic), as a percent of control / Aortic Lesion % of Area, Total, as a percent of control: 70 days, diet I 0.15%*, II and III 0.40%; for reduction of total aortic lesions: average, vs control rabbits, 0.15% for Compound I compared to 0.4% for Compound III; for Aortic Lesion % of Area, Thor. (thoracic), as a percent of control: thoracic aorta; for Aortic Lesion % of Area, Total, as a percent of control: total surface area of aorta
# Description: (§1) Female New Zealand White rabbits (Hazelton, ~2.0-2.3 kg) were fed 0.5% cholesterol/10% corn oil enriched rabbit chow (Purina # 5322) with or without test compound. The experiment was conducted for 70 days. The test compounds were solubilized in 100% ethanol and sprayed on the chow; control chows were sprayed with ethanol. The chows were dried overnight in a chemical fume hood. Rabbits were fed 100 grams food per day; water was available ad libitum. On the last day of the study rabbits (fasted overnight) were bled (~2 mL) from a marginal ear vein periodically to monitor serum cholesterol levels. The rabbits were euthanized on day 70 by carbon dioxide overdose. The total body and liver weights were recorded in grams. Food consumption was recorded as grams.cndot.day^-1. Aliquots of fresh serum were used for clinical chemistries and copper induced thiobarbituric acid reactive substances (TBARS). Aliquots of serum and livers (~5 gram) were frozen at -20° C. for compound and metabolite concentration determination at a later time.
# The aortas were dissected from rabbits immediately after they were killed. The aorta from the ascending arch to the iliac bifurcation was excised after debridement of extraneous adipose tissue. Aortas were stored overnight in phosphate buffered saline (PBS)/0.02% sodium azide, pH 7.4, at 4° C. until final debridement. Before staining, aortas were cut open longitudinally and stained with Sudan IV as follows. Sudan IV stain (5.0 g) was added to 500 mL of 70% ethanol, 500 mL of acetone were added, and the solution was stirred overnight at room temperature. The solution was filtered through Whatman #1 filter paper. Aortas were rinsed with 70% ethanol for 10 minutes. They were stained with Sudan IV for 60 min at room temperature, rinsed with 70% ethanol for 5-10 min, and stored in deionized water overnight at 4° C. They were stored in PBS/0.02% sodium azide at 4° C. until imaging could be completed.
# The areas containing sudanophilic lesions were quantitated as follows. Aortas were pinned flat onto black plastic sheets, illuminated with several fiber optic light sources, and photographed with a KODAK DCS-420 digital camera mounted on a copy stand. Images were captured and converted to 24 bit color TIFFs with Image Pals image editor software. The resulting images were rescaled to 1024×683 pixels to permit input into the Simple image analysis system and transferred to optical disk storage media. The Simple software was programmed to allow a region of interest to be drawn around the section of the aorta (arch, thoracic, abdominal) which separated the image of the aorta from the pins and the background. the program determined the tissue area in pixels based on pre-selected thresholds of hue, saturation, and intensity. These thresholds were adjusted to recognize the lesion area, and the percent fraction (# lesion pixels/# tissue pixels) was determined. This process was repeated on each portion of the aorta for each rabbit.
# (§2) % Control = (Mean, treated group / Mean, control group) × (100)
# Total = % area of total surface area of aorta covered with lesions
# Arch, Thoracic, Abdominal = % area of each segments of the aorta
# [2] = test system: serum lipid oxidation (TBARS); assay: TBARS assay: copper-induced oxidation of serum lipids from treated rabbits; assay type: in vivo, rabbit (New Zealand White, female); conditions: CuSO4 37° C. 5 hr, diet I 0.15%*, II and III 0.40%
# Description: as §1
# TBARS are a […] indication of the oxidation of lipids in a sample. Mao, S J T et al. Meth. of Enzymol. 234, 517-525 (1994). In this assay copper sulfate was used to initiate the oxidation serum lipids, resulting in the formation of aldehydes, such as malondialdehyde (MDA). Upon incubation with thiobarbituric acid, the absorbance of the aldehydes was detected at 530-540 nm. TBARS values which are lower than control serum values indicate the relative ability of a test compound to inhibit the oxidation. TBARS were measured as follows: 50 μL of serum were mixed with 50 μL of 0.9% saline and 400 μL of a 5 mmol CuSO4 solution and incubated at 37° C. for 5 hr. The reactions were stopped by addition of 1.0 mL of 20% trichloroacetic acid. […] Absorbances were measured at 540 nm using a Biotek model EL311 microplate reader. The nmoles of MDA produced were calculated from a standard curve of 0 to 10 nmoles of MDA prepared from malonaldehyde bis(dimethyacetal). […]
# TBARS = thiobarbituric acid reactive substances, expressed as nmole MDA
# [3] = Body weight and liver weight/body weight in cholesterol-fed rabbits; assay type: in vivo, rabbit (New Zealand White, female); conditions: II and III 0.40%; for body wt. as a percent of control: 70 days in 0.5% cholesterol/10% corn oil chow, diet I 0.15% (0.4% × 7 days, 0% × 7 days, then 0.15% × 56 days); for lw/bw (liver weight / body weight) as a percent of control: 70 days, diet I 0.15%*
# Description: as §1, §2
# Body wt. = weight in kilograms
# liver wt. = weight in kilograms
# LW/BW = (liver weight / body weight)
# [4] = HPLC quantitation of serum and liver compound and metabolite concentration; assay type: in vivo, rabbit (New Zealand White, female); conditions: for concentration at 1680 h: rabbit, po; for Serum Parent: parent compound concentration: 100800 min
# Description: as §1
# Serum and liver concentrations of parent compounds and the metabolites, bisphenol and diphenoquinone, were determined by reverse phase HPLC using a Waters 990 Powerline system. Mao, S. J. T. et al., Meth. of Enzymol. 234, 517-525 (1994); Satoni, D. K. and Coutant, J. E., J. Chrom. 380, 401-406 (1986). Livers (1 gram) were homogenized with 5.0 mL PBS, pH 7.4, using a Polytron tissue homogenizer at setting 5 for 20-30 seconds. Serum or liver homogenates were extracted as follows: 100 μL of serum or homogenate were added to 2.0 mL diethyl ether: ethanol (3:1) while vortexing the tube. The sample tubes were capped and centrifuged for 10 min at 5° C. at 3500 rpm in a Beckman GPKR centrifuge with a GH 3.7 rotor. The supernatants were transferred to clean tubes and dried under N2. Samples were reconstituted with 200 μL of acetonitrile:hexane:0.1 M ammonium acetate (90:6.5:3.5, by vol.). Then, 100 μL were injected onto a Waters Deltapak C18-300 Å column, and eluted with an 83% acetonitrile: 17% water mobile phase at a flow rate of 1.5 mL/min. Absorbances at the wavelengths of 240, 254, and 420 nm were recorded. Compound concentrations were calculated from known quantities of authentic parent compounds after correction for recovery; the range of recovery from spiked samples was 40 to 100%. The lowest detectable limit for this class of compounds was ~0.5 μg/mL. Concentrations were calculated as of μg/mL serum and of […].
# Sample compound concentrations in serum and liver are presented as
# μg/mL or μg/g, respectively.
# Serum Parent = parent compound concentration as μg/mL of serum
# Serum Bis = bisphenol concentration as μg/mL of serum
# Serum Quin = diphenoquinone concentration as […]
# Liver Parent = parent compound concentration as μg/g liver
# Liver Bis = bisphenol concentration as μg/g liver
# Liver Quin = diphenoquinone concentration as μg/g liver
# 0 = value less than detectable limit of HPLC system
# [5] = test system: serum cholesterol and triglycerides; assay: Clinical chemistries: serum total cholesterol and triglycerides in cholesterol-fed rabbits; assay type: in vivo, rabbit (New Zealand White, female); conditions: for TRIG (triglycerides) as a percent of control / chol tot. (total cholesterol) as a percent of control: serum, 70 days, diet I 0.15%*, II and III 0.40%; for increase of triglycerides: vs control rabbits
# Description: as §1
# Blood was allowed to clot at room temperature for 30 minutes. Serum was obtained after centrifugation for 10 min at 5° C. at 3000 rpm in a Beckman GPKR centrifuge with a GH 3.7 rotor. Fresh serum was analyzed by a COBA MIRA S autoanalyzer (Roche Diagnostics) using Roche diagnostic reagents for total cholesterol (CHOL, kit # 44334) and triglyceride (TG, kit # 44120). Cholesterol and triglycerides were calculated as mg/dL.
# as §2
# CHOL = total cholesterol mg/dL
# TRIG = triglycerides, mg/dL
# [6] = liver, diet I 0.15%*, II and III 0.40%, read-out: Liver Parent: parent compound concentration
# [7] = liver, read-out: concentration of parent compound in livers
# [8] = serum, diet I 0.15% (0.4% × 7 days, 0% × 7 days, then 0.15% × 56 days), II and III 0.40%, read-out: Serum Parent: parent compound concentration
# [9] = serum, diet I 0.15% (0.4% × 7 days, 0% × 7 days, then 0.15% × 56 days), II and III 0.40%
Compound,"Aortic Lesion % of Area, Abdom. (abdominal), as a percent of control [1] [%]","Aortic Lesion % of Area, Arch, as a percent of control [1] [%]",reduction of total aortic lesions [1] [%],"Aortic Lesion % of Area, Thor. (thoracic), as a percent of control [1] [%]","Aortic Lesion % of Area, Total, as a percent of control [1] [%]",TBARS (nmole MDA) as a percent of control [2] [%],body wt. as a percent of control [3] [%],lw/bw (liver weight / body weight) as a percent of control [3] [%],"concentration at 1680 h [4, 6] [ng/g]","concentration at 1680 h [4, 7] [µg/mL]","concentration at 1680 h [4, 8] [µg/mL]",bisphenol and diphenoquinone metabolites in serum and livers [4],"Serum Parent: parent compound concentration [4, 9] [µg/mL]",TRIG (triglycerides) as a percent of control [5] [%],chol tot. (total cholesterol) as a percent of control [5] [%],increase of triglycerides [5]
"COc1ccc([Si](C)(C)COc2cc(C(C)(C)C)c(O)c(C(C)(C)C)c2)cc1 [Compound I, 2,6-Di-t-butyl-4-[(dimethyl-4-methoxyphenylsilyl)methyloxy]phenol]",10,5,96,3,4,56,95,89,44900,44.9,7.3,none of the bisphenol and diphenoquinone metabolites of Compounds I or II were detected in either serum or livers,7.3,22,28,did not show an undesirable increase of triglycerides
"COc1ccccc1[Si](C)(C)COc1cc(C(C)(C)C)c(O)c(C(C)(C)C)c1 [Compound II, 2,6-di-t-butyl-4-[(dimethyl-2-methoxyphenylsilyl)methyloxy]phenol]",50,56,,44,55,90,98,86,80900,80.9,93.3,none of the bisphenol and diphenoquinone metabolites of Compounds I or II were detected in either serum or livers,93.3,100,79,did not show an undesirable increase of triglycerides
"CC(C)(C)c1cc(SC[Si](C)(C)c2ccccc2)cc(C(C)(C)C)c1O [Compound III, 2,6-di-t-butyl-4-[(dimethylphenylsilyl)methylthio]phenol, reference compound]",30,50,57,30,43,18,89,98,323000,323,182,undesirably high concentrations in both serum and livers,182.4,783,64,
